Columns and labels:
[1] = molecular target: Prostaglandin F2-alpha receptor (Homo sapiens) (UniProt P43088); assay: Prostanoid FP Eurofins-Panlabs radioligand binding assay; design: ligand concentration 0.95 nM; details: Compound concentration 10.0 uM
[2] = molecular target: Tyrosine-protein kinase ABL2 (Homo sapiens) (UniProt P42684); details: Compound concentration 100.0 nM
[3] = molecular target: Aurora kinase C (Homo sapiens) (UniProt Q9UQB9); details: Compound concentration 100.0 nM
[4] = molecular target: Cyclin-dependent kinase 11A (Homo sapiens) (UniProt Q9UQ88); details: Compound concentration 100.0 nM
[5] = molecular target: Cyclin-dependent kinase 13 (Homo sapiens) (UniProt Q14004); details: Compound concentration 100.0 nM
[6] = molecular target: Cyclin-dependent kinase-like 1 (Homo sapiens) (UniProt Q00532); details: Compound concentration 100.0 nM
[7] = molecular target: Serine/threonine-protein kinase Chk1 (Homo sapiens) (UniProt O14757); details: Compound concentration 100.0 nM
[8] = molecular target: Macrophage colony-stimulating factor 1 receptor (Homo sapiens) (UniProt P07333); details: Compound concentration 100.0 nM
[9] = molecular target: Death-associated protein kinase 1 (Homo sapiens) (UniProt P53355); details: Compound concentration 100.0 nM
[10] = system: Epidermal growth factor receptor (Homo sapiens), P00533 [UNDEFINED MUTATION]; details: Compound concentration 100.0 nM
[11] = system: Epidermal growth factor receptor (Homo sapiens), P00533 [L858R]; details: Compound concentration 100.0 nM
[12] = molecular target: Serine/threonine-protein kinase/endoribonuclease IRE1 (Homo sapiens) (UniProt O75460); details: Compound concentration 100.0 nM
[13] = molecular target: Fibroblast growth factor receptor 4 (Homo sapiens) (UniProt P22455); details: Compound concentration 100.0 nM
[14] = molecular target: Receptor-type tyrosine-protein kinase FLT3 (Homo sapiens) (UniProt P36888); details: Compound concentration 100.0 nM
[15] = system: Receptor-type tyrosine-protein kinase FLT3 (Homo sapiens), P36888 [UNDEFINED MUTATION]; details: Compound concentration 100.0 nM
[16] = molecular target: Homeodomain-interacting protein kinase 2 (Homo sapiens) (UniProt Q9H2X6); details: Compound concentration 100.0 nM
[17] = molecular target: Homeodomain-interacting protein kinase 3 (Homo sapiens) (UniProt Q9H422); details: Compound concentration 100.0 nM
[18] = molecular target: Homeodomain-interacting protein kinase 4 (Homo sapiens) (UniProt Q8NE63); details: Compound concentration 100.0 nM
[19] = molecular target: Mast/stem cell growth factor receptor Kit (Homo sapiens) (UniProt P10721); details: Compound concentration 100.0 nM
[20] = molecular target: Dual specificity mitogen-activated protein kinase kinase 1 (Homo sapiens) (UniProt Q02750); details: Compound concentration 100.0 nM
[21] = molecular target: Serine/threonine-protein kinase 26 (Homo sapiens) (UniProt Q9P289); details: Compound concentration 100.0 nM
[22] = molecular target: Serine/threonine-protein kinase Nek10 (Homo sapiens) (UniProt Q6ZWH5); details: Compound concentration 100.0 nM
[23] = molecular target: Serine/threonine-protein kinase OSR1 (Homo sapiens) (UniProt O95747); details: Compound concentration 100.0 nM
[24] = molecular target: Serine/threonine-protein kinase PAK 3 (Homo sapiens) (UniProt O75914); details: Compound concentration 100.0 nM
[25] = molecular target: Phosphatidylinositol 4-phosphate 3-kinase C2 domain-containing subunit beta (Homo sapiens) (UniProt O00750); details: Compound concentration 100.0 nM
[26] = system: Phosphatidylinositol 4,5-bisphosphate 3-kinase catalytic subunit alpha isoform (Homo sapiens), P42336 [C420R]; details: Compound concentration 100.0 nM
[27] = system: Phosphatidylinositol 4,5-bisphosphate 3-kinase catalytic subunit alpha isoform (Homo sapiens), P42336 [I800L]; details: Compound concentration 100.0 nM
[28] = molecular target: Serine/threonine-protein kinase D1 (Homo sapiens) (UniProt Q15139); details: Compound concentration 100.0 nM
[29] = molecular target: Rho-associated protein kinase 1 (Homo sapiens) (UniProt Q13464); details: Compound concentration 100.0 nM
[30] = molecular target: Uncharacterized serine/threonine-protein kinase SBK3 (Homo sapiens) (UniProt P0C264); details: Compound concentration 100.0 nM
[31] = molecular target: Serine/threonine-protein kinase SIK2 (Homo sapiens) (UniProt Q9H0K1); details: Compound concentration 100.0 nM
[32] = molecular target: Tyrosine-protein kinase receptor Tie-1 (Homo sapiens) (UniProt P35590); details: Compound concentration 100.0 nM
[33] = molecular target: D(1B) dopamine receptor (Homo sapiens) (UniProt P21918); details: Compound concentration 10.0 uM
[34] = molecular target: Beta-2 adrenergic receptor (Homo sapiens) (UniProt P07550); details: Compound concentration 10.0 uM
[35] = molecular target: D(2) dopamine receptor (Homo sapiens) (UniProt P14416); details: Compound concentration 10.0 uM
[36] = molecular target: Purinergic P2Y (Rattus norvegicus) (UniProt O35811+Q9EPX4+P49651+Q63371+P41232+O35881+Q6GUG4); details: Compound concentration 10.0 uM
[37] = molecular target: T1, 5-hydroxytryptamine receptor 1A (Homo sapiens) (UniProt P08908); details: Compound concentration 10.0 uM
T1 sequence (whole entry): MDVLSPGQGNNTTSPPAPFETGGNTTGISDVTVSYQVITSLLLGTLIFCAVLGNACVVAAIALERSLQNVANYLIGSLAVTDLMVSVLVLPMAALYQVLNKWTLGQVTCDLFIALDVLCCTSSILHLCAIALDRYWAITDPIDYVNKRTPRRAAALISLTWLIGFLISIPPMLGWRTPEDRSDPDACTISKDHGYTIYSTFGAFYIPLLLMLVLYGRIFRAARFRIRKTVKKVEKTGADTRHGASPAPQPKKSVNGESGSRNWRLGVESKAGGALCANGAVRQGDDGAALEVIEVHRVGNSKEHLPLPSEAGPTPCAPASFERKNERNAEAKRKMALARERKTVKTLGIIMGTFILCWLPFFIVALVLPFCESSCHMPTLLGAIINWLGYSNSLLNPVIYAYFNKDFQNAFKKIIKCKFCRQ

[38] = molecular target: Citron Rho-interacting kinase (Homo sapiens) (UniProt O14578); details: Compound concentration 100.0 nM
[39] = molecular target: Mitogen-activated protein kinase kinase kinase 2 (Homo sapiens) (UniProt Q9Y2U5); details: Compound concentration 100.0 nM

Mast/stem cell growth factor receptor Kit (Homo sapiens), sequence (P10721 whole entry): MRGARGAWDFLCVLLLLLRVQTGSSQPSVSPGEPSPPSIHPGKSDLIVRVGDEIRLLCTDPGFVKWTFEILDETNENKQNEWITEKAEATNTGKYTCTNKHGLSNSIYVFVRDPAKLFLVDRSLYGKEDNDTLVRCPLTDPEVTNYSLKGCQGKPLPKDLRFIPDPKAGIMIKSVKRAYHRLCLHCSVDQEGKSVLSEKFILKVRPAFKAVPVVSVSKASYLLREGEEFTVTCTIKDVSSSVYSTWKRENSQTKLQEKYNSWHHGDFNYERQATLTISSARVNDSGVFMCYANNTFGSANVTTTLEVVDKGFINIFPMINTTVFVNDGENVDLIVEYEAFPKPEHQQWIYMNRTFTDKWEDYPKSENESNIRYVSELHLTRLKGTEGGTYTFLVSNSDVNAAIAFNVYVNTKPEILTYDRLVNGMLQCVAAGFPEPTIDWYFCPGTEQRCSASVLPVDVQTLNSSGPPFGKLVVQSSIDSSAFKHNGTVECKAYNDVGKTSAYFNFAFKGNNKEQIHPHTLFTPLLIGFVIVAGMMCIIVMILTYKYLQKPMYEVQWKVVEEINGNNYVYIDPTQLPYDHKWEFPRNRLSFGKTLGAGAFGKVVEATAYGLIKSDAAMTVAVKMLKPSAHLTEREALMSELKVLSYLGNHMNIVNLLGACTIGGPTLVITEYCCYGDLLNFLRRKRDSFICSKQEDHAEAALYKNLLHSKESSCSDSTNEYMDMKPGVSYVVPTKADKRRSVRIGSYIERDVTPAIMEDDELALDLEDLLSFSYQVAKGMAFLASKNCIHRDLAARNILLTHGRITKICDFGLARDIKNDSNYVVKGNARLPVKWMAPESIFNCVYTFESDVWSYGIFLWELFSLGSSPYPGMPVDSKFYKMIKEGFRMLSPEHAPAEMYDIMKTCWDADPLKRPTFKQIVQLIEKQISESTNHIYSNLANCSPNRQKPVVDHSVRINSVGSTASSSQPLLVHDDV
Serine/threonine-protein kinase D1 (Homo sapiens), sequence (Q15139 whole entry): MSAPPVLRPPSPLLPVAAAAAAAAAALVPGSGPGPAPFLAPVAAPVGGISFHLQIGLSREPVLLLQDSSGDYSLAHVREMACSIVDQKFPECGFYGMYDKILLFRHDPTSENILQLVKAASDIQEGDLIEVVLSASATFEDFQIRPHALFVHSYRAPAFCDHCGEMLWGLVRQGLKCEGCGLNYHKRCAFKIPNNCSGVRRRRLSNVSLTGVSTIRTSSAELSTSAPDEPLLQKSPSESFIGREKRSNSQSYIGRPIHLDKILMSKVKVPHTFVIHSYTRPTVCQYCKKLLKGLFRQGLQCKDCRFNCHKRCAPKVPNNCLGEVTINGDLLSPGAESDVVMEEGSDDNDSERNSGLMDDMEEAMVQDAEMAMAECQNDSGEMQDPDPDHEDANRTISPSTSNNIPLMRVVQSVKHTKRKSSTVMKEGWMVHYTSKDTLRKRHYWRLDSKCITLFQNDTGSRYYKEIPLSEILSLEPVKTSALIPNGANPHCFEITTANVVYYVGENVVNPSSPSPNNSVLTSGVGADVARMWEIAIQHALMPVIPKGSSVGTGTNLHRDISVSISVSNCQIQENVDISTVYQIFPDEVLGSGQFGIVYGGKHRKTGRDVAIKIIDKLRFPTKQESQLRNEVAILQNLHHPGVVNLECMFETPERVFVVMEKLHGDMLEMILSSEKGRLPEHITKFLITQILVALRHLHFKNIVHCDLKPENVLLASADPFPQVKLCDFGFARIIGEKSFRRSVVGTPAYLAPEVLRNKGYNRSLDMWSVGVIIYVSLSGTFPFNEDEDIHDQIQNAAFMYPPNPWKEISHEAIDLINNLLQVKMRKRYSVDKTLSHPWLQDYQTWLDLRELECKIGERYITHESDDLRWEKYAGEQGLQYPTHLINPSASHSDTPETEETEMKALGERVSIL
Aurora kinase C (Homo sapiens), sequence (Q9UQB9 whole entry): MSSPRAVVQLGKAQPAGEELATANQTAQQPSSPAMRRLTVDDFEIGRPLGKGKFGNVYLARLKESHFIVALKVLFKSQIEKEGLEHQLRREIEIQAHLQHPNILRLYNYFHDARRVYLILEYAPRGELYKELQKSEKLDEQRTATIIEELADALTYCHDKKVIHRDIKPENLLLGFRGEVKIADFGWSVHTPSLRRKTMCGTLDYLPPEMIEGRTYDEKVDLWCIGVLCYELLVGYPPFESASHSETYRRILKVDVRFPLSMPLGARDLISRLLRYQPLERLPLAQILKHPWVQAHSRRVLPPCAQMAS
Rho-associated protein kinase 1 (Homo sapiens), sequence (Q13464 2-1354 limits assumed): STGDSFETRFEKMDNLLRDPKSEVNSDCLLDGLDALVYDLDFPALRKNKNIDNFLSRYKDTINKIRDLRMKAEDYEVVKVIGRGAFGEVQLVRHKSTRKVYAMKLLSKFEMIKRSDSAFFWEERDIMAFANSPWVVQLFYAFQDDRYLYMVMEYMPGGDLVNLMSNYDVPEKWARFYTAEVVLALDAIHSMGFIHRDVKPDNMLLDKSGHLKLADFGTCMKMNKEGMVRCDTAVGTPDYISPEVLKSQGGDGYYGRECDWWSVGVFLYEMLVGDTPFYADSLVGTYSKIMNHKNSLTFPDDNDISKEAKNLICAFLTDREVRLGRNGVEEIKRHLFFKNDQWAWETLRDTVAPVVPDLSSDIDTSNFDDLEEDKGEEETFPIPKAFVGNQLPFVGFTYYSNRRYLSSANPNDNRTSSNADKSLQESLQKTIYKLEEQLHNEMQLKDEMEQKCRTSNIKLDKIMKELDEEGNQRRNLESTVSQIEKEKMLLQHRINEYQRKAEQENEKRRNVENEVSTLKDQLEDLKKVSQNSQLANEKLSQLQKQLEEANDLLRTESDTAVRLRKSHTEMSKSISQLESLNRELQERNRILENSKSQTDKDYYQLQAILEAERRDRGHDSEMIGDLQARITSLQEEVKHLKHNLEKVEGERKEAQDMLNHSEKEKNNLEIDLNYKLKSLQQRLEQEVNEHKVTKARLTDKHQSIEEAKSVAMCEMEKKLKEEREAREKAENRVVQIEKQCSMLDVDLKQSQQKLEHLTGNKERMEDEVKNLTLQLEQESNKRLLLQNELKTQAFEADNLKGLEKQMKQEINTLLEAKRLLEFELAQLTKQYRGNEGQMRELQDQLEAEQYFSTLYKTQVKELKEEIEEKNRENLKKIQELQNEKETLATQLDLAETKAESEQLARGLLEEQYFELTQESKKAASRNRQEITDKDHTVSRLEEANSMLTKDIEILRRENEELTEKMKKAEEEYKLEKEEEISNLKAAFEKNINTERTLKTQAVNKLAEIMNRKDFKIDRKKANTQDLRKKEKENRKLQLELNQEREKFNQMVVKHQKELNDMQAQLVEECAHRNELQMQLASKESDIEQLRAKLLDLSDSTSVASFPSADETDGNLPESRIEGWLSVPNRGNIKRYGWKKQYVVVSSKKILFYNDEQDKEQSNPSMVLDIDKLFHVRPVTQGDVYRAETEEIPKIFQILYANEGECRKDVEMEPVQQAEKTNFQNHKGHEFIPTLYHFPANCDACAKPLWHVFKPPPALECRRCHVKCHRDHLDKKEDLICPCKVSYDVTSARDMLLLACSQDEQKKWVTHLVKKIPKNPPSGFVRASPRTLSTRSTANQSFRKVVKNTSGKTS
Homeodomain-interacting protein kinase 2 (Homo sapiens), sequence (Q9H2X6 whole entry, looked up): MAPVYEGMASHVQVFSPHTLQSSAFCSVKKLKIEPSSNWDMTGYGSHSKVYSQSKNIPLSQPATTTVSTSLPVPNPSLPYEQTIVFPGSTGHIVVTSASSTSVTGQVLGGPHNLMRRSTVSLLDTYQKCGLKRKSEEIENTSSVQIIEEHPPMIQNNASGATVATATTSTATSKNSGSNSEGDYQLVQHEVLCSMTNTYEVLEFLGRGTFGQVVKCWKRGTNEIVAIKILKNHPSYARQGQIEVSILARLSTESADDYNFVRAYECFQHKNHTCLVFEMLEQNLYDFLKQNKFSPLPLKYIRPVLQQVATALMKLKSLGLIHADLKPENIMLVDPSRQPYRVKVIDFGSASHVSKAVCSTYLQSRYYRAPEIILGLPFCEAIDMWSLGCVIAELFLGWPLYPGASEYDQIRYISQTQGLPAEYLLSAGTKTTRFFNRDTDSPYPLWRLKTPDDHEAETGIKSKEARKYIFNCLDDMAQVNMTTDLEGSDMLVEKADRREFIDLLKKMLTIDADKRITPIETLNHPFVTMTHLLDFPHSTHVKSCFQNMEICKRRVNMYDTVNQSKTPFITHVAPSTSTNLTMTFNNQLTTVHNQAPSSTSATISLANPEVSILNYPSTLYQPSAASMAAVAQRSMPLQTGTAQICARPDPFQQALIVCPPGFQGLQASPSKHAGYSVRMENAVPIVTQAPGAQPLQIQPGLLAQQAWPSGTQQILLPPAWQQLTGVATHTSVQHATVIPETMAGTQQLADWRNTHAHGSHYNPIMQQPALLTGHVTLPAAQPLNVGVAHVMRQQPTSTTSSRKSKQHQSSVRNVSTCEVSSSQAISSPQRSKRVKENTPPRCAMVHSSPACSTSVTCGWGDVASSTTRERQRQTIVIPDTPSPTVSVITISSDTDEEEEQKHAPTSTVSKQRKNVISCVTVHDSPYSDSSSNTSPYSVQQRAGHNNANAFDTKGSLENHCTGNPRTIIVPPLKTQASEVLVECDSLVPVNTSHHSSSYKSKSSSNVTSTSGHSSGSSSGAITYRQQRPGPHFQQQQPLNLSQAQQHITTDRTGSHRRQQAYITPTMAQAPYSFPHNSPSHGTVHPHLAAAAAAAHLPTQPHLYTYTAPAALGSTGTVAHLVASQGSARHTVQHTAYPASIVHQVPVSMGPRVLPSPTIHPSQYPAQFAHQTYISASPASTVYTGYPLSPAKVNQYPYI
Cyclin-dependent kinase-like 1 (Homo sapiens), sequence (Q00532 whole entry): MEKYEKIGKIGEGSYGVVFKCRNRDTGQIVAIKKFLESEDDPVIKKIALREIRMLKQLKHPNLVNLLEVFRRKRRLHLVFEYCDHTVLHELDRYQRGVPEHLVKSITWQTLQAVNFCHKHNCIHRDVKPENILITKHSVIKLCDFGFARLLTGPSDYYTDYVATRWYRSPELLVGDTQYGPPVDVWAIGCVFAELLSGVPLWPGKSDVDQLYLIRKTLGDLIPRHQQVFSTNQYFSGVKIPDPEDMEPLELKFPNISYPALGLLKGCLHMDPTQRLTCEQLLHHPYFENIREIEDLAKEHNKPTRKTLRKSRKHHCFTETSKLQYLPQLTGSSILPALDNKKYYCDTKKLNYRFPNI

COCCOc1nc(-c2ccc(Cl)nc2)nc2c1CN(C(=O)c1ncn3ccccc13)CC2 [THPP-1]
inactive: inhibition [1] 22% | residual activity [2] 100% | residual activity [3] 95% | residual activity [4] 100% | residual activity [5] 100% | residual activity [6] 61% | residual activity [7] 100% | residual activity [8] 100% | residual activity [9] 100% | residual activity [10] 100% | residual activity [11] 83% | residual activity [12] 100% | residual activity [13] 90% | residual activity [14] 85% | residual activity [15] 64% | residual activity [16] 100% | residual activity [17] 100% | residual activity [18] 83% | residual activity [19] 100% | residual activity [20] 100% | residual activity [21] 100% | residual activity [22] 100% | residual activity [23] 100% | residual activity [24] 100% | residual activity [25] 100% | residual activity [26] 95% | residual activity [27] 66% | residual activity [28] 90% | residual activity [29] 93% | residual activity [30] 100% | residual activity [31] 100% | residual activity [32] 100% | inhibition [33] -3.46% | inhibition [34] -4% | inhibition [35] 3% | inhibition [36] 5% | inhibition [37] 8%

CC(C)CC(=O)N1CCc2nc(-c3ccc(Br)cc3)nc(N(C)Cc3ccccc3)c2C1 [THPP-1-NC]
inactive: residual activity [2] 100% | residual activity [3] 100% | residual activity [4] 100% | residual activity [5] 100% | residual activity [6] 63% | residual activity [7] 100% | residual activity [38] 100% | residual activity [8] 100% | residual activity [9] 100% | residual activity [10] 100% | residual activity [11] 94% | residual activity [12] 100% | residual activity [13] 98% | residual activity [14] 60% | residual activity [15] 68% | residual activity [16] 100% | residual activity [17] 100% | residual activity [18] 61% | residual activity [19] 100% | residual activity [39] 100% | residual activity [20] 100% | residual activity [21] 100% | residual activity [22] 100% | residual activity [23] 100% | residual activity [24] 100% | residual activity [25] 100% | residual activity [26] 87% | residual activity [27] 98% | residual activity [28] 87% | residual activity [29] 78% | residual activity [30] 100% | residual activity [31] 100% | residual activity [32] 100% | inhibition [33] 19.4%

— ChEMBL document CHEMBL4507293 (2021)
